Reference: article PMC5336358, “Origin and evolution of transporter substrate specificity within the NPF family” (eLife, 2017)

Legend:
Me14G074000 = molecular target: T1, Me14G074000 (Manihot esculenta, UniProt A0A2C9ULI5); experiment: oocyte uptake, LC-MS; format: cell-based; settings: 0.2 mM substrate, pH 5, 60 min
T1 construct: gene MANES_14G074000v8; full-length untagged, codon-optimized cRNA in Xenopus laevis oocytes; primer encodes N-term MATGETI

CpGTRL2 (Cp17.190) = test system: T2, CpGTRL2 (Cp17.190); experiment: TEVC currents in Xenopus oocytes, Michaelis-Menten fit; format: cell-based, Carica papaya; settings: pH 5, -60 mV membrane potential
T2 construct: full-length untagged, codon-optimized cRNA in Xenopus laevis oocytes; primer encodes N-term MEMDGKE

BrGTR1 (BrF01711) = molecular target: T3, BrGTR1 (BrF01711) (Brassica rapa, UniProt A0A8D9DAH7); experiment: oocyte uptake, LC-MS; TEVC currents; format: cell-based; settings: […] substrate, pH […] min
T3 construct: gene BRAPAZ1V2_A06P20680.2; full-length untagged, codon-optimized cRNA in Xenopus laevis oocytes; primer encodes N-term MERKPFE
T3 sequence (A0A8D9DAH7 1-615): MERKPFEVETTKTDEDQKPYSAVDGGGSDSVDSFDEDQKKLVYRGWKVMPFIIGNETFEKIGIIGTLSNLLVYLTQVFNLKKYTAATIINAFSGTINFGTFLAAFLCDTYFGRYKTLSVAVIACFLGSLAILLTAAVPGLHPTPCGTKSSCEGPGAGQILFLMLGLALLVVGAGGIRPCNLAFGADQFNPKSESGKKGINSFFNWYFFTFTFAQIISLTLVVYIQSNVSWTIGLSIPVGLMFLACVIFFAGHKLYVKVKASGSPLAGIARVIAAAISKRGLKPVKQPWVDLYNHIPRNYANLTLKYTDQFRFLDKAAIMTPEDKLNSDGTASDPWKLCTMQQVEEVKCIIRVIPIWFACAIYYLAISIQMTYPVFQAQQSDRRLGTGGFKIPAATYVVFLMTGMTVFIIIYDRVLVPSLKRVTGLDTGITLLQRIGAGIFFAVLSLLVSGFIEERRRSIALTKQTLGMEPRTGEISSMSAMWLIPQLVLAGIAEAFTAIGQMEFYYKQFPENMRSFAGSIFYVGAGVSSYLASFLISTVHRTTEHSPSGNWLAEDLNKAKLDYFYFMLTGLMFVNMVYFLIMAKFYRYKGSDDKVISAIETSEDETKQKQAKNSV

BrGTR3 (BrH02396) = molecular target: T4, BrGTR3 (BrH02396) (Brassica rapa, UniProt A0A397YP93); experiment: oocyte uptake, LC-MS; TEVC currents; format: cell-based; settings: […] substrate, pH […] min
T4 construct: gene BRARA_H02396; full-length untagged, codon-optimized cRNA in Xenopus laevis oocytes; primer encodes N-term MEVEKTQE
T4 sequence (A0A397YP93 1-591): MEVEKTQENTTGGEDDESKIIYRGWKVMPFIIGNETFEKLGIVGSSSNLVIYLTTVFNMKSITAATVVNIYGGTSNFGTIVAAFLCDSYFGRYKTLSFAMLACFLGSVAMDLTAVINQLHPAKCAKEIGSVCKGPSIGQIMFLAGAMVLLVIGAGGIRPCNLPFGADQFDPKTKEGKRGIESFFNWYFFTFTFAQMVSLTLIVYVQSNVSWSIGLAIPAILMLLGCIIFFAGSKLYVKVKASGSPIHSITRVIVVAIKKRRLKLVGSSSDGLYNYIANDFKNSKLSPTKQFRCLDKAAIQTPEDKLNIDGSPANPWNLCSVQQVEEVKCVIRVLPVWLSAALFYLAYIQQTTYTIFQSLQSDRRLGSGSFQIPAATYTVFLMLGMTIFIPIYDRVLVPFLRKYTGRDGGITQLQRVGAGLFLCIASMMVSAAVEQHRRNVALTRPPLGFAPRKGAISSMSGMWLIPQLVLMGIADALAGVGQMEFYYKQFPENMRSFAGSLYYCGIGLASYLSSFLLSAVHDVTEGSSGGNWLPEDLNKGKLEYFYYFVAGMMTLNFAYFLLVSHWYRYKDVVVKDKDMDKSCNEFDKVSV

GTR3 (NPF2.9, At1g18880) = molecular target: T5, GTR3 (NPF2.9, At1g18880) (Arabidopsis thaliana, UniProt Q9M9V7); experiment: TEVC currents in Xenopus oocytes, Michaelis-Menten fit; format: cell-based; settings: pH 5, -60 mV membrane potential
T5 construct: full-length untagged, cRNA in Xenopus laevis oocytes
T5 sequence (Q9M9V7 1-587): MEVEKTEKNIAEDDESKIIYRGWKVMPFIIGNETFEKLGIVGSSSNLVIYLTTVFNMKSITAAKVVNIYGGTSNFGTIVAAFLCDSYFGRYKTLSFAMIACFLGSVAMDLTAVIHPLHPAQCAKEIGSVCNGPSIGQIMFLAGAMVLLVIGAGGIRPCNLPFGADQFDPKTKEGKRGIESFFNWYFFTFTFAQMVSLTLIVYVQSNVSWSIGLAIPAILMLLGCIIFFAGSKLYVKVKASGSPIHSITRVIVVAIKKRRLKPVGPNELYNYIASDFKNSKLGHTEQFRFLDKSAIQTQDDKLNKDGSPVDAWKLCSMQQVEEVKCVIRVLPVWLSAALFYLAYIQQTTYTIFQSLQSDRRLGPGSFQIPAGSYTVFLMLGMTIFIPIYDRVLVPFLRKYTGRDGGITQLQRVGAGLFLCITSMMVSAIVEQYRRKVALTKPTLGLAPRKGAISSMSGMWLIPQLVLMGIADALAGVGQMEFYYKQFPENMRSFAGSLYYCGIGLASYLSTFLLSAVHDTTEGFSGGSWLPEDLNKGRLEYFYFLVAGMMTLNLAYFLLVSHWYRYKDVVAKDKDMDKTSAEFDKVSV

GTR2 (AtGTR2, NPF2.11) = molecular target: T6, GTR2 (AtGTR2, NPF2.11) (Arabidopsis thaliana, UniProt Q9LV10); experiment: as above; format: cell-based; settings: pH 5, -60 mV membrane potential
T6 construct: full-length untagged, cRNA in Xenopus laevis oocytes
T6 sequence (Q9LV10 1-616): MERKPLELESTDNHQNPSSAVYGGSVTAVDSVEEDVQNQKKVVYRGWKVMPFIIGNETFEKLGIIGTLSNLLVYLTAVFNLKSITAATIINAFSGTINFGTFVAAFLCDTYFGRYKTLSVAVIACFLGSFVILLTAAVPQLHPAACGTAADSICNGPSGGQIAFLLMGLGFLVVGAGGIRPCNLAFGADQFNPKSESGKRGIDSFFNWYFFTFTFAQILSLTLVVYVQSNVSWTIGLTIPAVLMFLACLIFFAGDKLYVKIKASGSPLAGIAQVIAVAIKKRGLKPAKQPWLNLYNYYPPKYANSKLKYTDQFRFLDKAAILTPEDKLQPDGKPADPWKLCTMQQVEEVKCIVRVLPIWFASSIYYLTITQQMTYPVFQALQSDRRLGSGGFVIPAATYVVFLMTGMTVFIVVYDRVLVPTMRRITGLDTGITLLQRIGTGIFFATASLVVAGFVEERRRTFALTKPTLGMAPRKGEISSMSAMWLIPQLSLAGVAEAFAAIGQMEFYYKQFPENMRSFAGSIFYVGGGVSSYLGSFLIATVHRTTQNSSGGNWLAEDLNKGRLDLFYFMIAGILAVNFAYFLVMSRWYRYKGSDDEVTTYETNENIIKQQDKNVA

GTR1 (AtGTR1, NPF2.10) = molecular target: T7, GTR1 (AtGTR1, NPF2.10) (Arabidopsis thaliana, UniProt Q944G5); experiment: as above; format: cell-based; settings: pH 5, -60 mV membrane potential
T7 construct: full-length untagged, cRNA in Xenopus laevis oocytes
T7 sequence (Q944G5 1-636): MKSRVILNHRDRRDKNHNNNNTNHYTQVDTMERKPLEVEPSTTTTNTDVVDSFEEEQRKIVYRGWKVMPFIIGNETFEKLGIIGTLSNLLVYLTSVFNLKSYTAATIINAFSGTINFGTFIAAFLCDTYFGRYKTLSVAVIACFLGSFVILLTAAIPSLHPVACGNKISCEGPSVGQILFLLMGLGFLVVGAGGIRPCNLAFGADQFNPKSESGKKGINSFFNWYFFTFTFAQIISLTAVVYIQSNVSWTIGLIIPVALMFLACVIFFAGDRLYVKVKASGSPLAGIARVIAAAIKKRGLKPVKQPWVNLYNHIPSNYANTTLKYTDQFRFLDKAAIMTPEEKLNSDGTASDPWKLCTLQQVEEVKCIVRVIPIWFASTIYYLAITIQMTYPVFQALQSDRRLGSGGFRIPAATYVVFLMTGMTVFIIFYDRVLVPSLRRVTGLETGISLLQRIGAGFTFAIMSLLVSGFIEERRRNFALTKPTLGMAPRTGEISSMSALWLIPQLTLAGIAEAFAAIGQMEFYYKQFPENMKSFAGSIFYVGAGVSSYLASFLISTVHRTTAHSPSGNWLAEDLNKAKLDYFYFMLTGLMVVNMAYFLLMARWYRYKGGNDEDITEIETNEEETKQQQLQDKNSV

Me15G176100 = molecular target: T8, Me15G176100 (Manihot esculenta, UniProt A0A2C9UH66); experiment: oocyte uptake, LC-MS; format: cell-based; settings: 0.2 mM substrate, pH 5, 60 min
T8 construct: gene MANES_15G175484v8; full-length untagged, codon-optimized cRNA in Xenopus laevis oocytes; primer encodes N-term MEDKEEKS

[1] = substrate: CC(C)(C#N)O[C@@H]1O[C@H](CO)[C@@H](O)[C@H](O)[C@H]1O; experiment: TEVC currents in Xenopus oocytes, Michaelis-Menten fit; format: cell-based, Manihot esculenta; settings: pH 5, -60 mV membrane potential
[2] = substrate: N#C[C@H](O[C@@H]1O[C@H](CO)[C@@H](O)[C@H](O)[C@H]1O)c1ccccc1; experiment: as above; format: cell-based, Manihot esculenta; settings: pH 5, -60 mV membrane potential

T1 sequence (A0A2C9ULI5 entry or part of it): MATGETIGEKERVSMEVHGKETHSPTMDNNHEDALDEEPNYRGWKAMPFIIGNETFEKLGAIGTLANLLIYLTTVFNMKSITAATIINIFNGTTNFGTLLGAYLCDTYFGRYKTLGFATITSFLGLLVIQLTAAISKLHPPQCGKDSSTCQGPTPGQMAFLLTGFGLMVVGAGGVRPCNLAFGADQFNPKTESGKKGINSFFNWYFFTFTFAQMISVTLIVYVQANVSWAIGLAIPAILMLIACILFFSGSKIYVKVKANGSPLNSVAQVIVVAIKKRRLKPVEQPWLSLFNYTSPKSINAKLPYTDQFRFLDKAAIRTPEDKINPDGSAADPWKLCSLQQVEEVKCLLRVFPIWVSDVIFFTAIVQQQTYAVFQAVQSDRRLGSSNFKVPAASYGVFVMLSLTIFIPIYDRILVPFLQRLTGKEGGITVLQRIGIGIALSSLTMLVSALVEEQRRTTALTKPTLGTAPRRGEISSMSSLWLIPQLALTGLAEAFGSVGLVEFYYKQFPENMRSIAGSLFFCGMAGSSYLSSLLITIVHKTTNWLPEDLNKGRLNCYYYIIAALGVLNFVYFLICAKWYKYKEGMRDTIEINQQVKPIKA
T8 sequence (A0A2C9UH66 entry or part of it): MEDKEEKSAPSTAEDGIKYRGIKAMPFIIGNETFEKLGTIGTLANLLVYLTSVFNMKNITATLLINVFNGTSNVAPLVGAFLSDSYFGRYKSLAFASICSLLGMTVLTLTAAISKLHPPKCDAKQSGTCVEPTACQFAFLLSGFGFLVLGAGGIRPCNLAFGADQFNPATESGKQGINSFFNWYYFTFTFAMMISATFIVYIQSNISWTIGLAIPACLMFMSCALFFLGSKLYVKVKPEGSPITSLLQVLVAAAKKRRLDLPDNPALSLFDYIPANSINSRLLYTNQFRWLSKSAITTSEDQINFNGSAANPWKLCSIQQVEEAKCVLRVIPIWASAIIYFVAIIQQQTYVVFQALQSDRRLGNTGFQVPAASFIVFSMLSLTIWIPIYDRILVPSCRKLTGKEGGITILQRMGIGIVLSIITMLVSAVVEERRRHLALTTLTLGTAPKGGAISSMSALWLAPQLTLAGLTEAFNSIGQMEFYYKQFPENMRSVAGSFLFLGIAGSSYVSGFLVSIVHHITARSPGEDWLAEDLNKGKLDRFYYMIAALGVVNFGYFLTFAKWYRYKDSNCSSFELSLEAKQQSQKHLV

Q: What does the source list for CSCCCC/C(=N/OS(=O)(=O)O)S[C@@H]1O[C@H](CO)[C@@H](O)[C@H](O)[C@H]1O [4MTB, 4-methylthiobutyl glucosinolate]?
A: oocyte uptake, LC-MS (Me14G074000): Me14G074000 from cassava over-accumulated both 4MTB and I3M relative to external media; Km (CpGTRL2 (Cp17.190)): 85 ± 12 µM; oocyte uptake, LC-MS; TEVC currents (BrGTR1 (BrF01711)): BrGTR1 ortholog (BrF01711) transported 4MTB and I3M with similar efficiency

Q: O=S(=O)(O)O/N=C(/Cc1c[nH]c2ccccc12)S[C@@H]1O[C@H](CO)[C@@H](O)[C@H](O)[C@H]1O [I3M, indol-3-yl-methyl glucosinolate] was tested. Which “oocyte uptake, LC-MS; TEVC currents” value (BrGTR3 (BrH02396)) did it give?
A: The value was “strong preference for I3M by the tested BrGTR3 ortholog (BrH02396)”.

Q: What about the Km (GTR3 (NPF2.9, At1g18880)) of the same molecule?
A: The Km was < 25 µM.

Q: What about the Km (GTR2 (AtGTR2, NPF2.11)) of the same molecule?
A: The Km was < 25 µM.

Q: What about the Km (GTR1 (AtGTR1, NPF2.10)) of the same molecule?
A: Its Km is < 25 µM.

Q: And the “oocyte uptake, LC-MS; TEVC currents” value (BrGTR1 (BrF01711))?
A: The value was “BrGTR1 ortholog (BrF01711) transported 4MTB and I3M with similar efficiency”.

Q: With N#C[C@H](O[C@@H]1O[C@H](CO)[C@@H](O)[C@H](O)[C@H]1O)c1ccccc1 [prunasin] as the molecule, how does the “oocyte uptake, LC-MS” value (Me14G074000) read?
A: The value was “Me14G074000 from cassava accumulated prunasin, but not linamarin, to levels equivalent to media”.

Q: And the “oocyte uptake, LC-MS” value (Me15G176100)?
A: Its value is “Uptake of prunasin was detected in oocytes expressing Me15G176100”.

B1: MeCGTR1 (Me15G180400) (Manihot esculenta) (protein)
chain: MENGNDHAQDQQKSIEKDEEPVINYRGIKAMPFIIGNETFEKLGTVGSSTNLVVYLNTVFNLKSVTATTLVNIFNGTTNLAPLLGAFLCDTYFGRYKTLGFASVASFLGMSALALTAAVPTLHPPKCVGKESSQCVGPSIWQLAFLLCGFGLIAIGAGGIRPCNLAFGAEQFNPNTESGKRGMSSFFNWYYFTYTFAVMVSVTGIVYVQSDVSWAIGLAIPAFLMFLSCAVFFIGTKIYVIVKPEGSPITSVVQVLVVSVKKRGLKLPQNPAVSLFNYVPAKSINSRLSHTEQFSFLDKAAIVTEKDEINLDGSAANPWRLCSIQQVEEVKCMVRIIPIWASAIIYHVPLIQQQTYAVLQALQLDRRLGTGSFEIPAATFIIFTMLALTIWIPIYDRILVPFLQRLTGKEGGFTLLQRMGIGILLSVLCMFVSGLVESHRRDIALSKPTLGISPKGGAVSSMTWLWLVPQLALAGLSEGFNYVSQIEFYYKQFPENMRSIAGSSFFAGLALANFLSGLLVSTIHKITSATKSGDWLSEDLNKGKLDHFYYVIGVLGTVNMAYFLLCAKWYRYKVREDDGSVEMSNKSSVKHHV
notes: full-length untagged, codon-optimized cRNA in Xenopus laevis oocytes (pNB1u); primer encodes N-term MENGNDH
Q: With B1 as the molecule, how does the Km [1] read?
A: The Km was 262 ± 15 µM.

Q: And the Km [2]?
A: The Km was 80 ± 7 µM.
